From ChEMBL document CHEMBL5143684, “Design, synthesis and biological evaluation of novel 5-methyl-2,4,5,6-tetrahydropyrrolo[3,4-c]pyrazole derivatives as potent potassium-competitive acid blockers” (Bioorg Med Chem, 2022)

Assays:
[1] = Inhibition of rabbit stomach K+ stimulated H(+)/K(+) ATPase activity incubated for 30 mins in presence of ATP and KCl by malachite green reagent based assay; assay type: tissue-based, Oryctolagus cuniculus
[2] = Inhibition of gastric acid secretion in histamine induced Sprague-Dawley rat at 1 mg/kg, iv pretreated with compound for 15 mins followed by histamine dihydrochloride injection and measured after 3 hrs; assay type: functional; details: 3.25 h, time 195 min
[3] = Oral bioavailability in Sprague-Dawley rat at 8 mg/kg by LC-MS/MS analysis; assay type: ADME, organism-based; details: in vivo
[4] = AUC (0 to infinity) in Sprague-Dawley rat at 8 mg/kg, po by LC-MS/MS analysis; assay type: ADME, organism-based; parameters: time infinity, dose 8 mg/kg, route po; details: in vivo
[5] = AUC (0 to infinity) in Sprague-Dawley rat at 2 mg/kg, iv by LC-MS/MS analysis; assay type: ADME, organism-based; parameters: time infinity, dose 2 mg/kg, route iv; details: in vivo
[6] = Cmax in Sprague-Dawley rat at 8 mg/kg, po by LC-MS/MS analysis; assay type: ADME, organism-based; parameters: dose 8 mg/kg, route po; details: in vivo
[7] = Terminal half life in Sprague-Dawley rat at 2 mg/kg, iv by LC-MS/MS analysis; assay type: ADME, organism-based; details: in vivo, read-out: beta t1/2 (converted)
[8] = Elimination half life in Sprague-Dawley rat at 8 mg/kg, po by LC-MS/MS analysis; assay type: ADME, organism-based; details: in vivo, read-out: beta t1/2 (converted)
[9] = Oral bioavailability in Sprague-Dawley rat at 2 mg/kg; assay type: ADME, organism-based; details: in vivo
[10] = Half life in Sprague-Dawley rat at 2 mg/kg, po; assay type: ADME, organism-based; details: in vivo
[11] = AUC (0 to infinity) in Sprague-Dawley rat at 0.75 mg/kg, iv measured up to 24 hrs; assay type: ADME, organism-based; parameters: dose 0.75 mg/kg, time < 24 hrs, route iv; details: in vivo
[12] = Cmax in Sprague-Dawley rat at 2 mg/kg, po; assay type: ADME, organism-based; parameters: dose 2 mg/kg, route po; details: in vivo
[13] = AUC (0 to infinity) in Sprague-Dawley rat at 2 mg/kg, po; assay type: ADME, organism-based; parameters: time infinity, dose 2 mg/kg, route po; details: in vivo
[14] = Half life in Sprague-Dawley rat at 0.75 mg/kg, iv measured up to 24 hrs; assay type: ADME, organism-based; details: in vivo

For `CN1Cc2nn(Cc3cccc(-c4cccc(C#N)c4)c3)c(-c3ccccc3F)c2C1`, the IC50 [1] was 396 nM.

Work on `CN1Cc2nn(Cc3cccc([N+](=O)[O-])c3)c(-c3ccccc3F)c2C1` yielded an IC50 [1] of 140 nM.

`CN1Cc2nn(Cc3cccc(Cl)c3)c(-c3ccccc3F)c2C1` gave an IC50 [1] of 354 nM.

Work on `CN1Cc2nn(Cc3cccc(OCCC(=O)O)c3)c(-c3ccccc3F)c2C1` yielded an IC50 [1] of 1840 nM.

`CN1Cc2nn(Cc3cccc(-c4cccc(F)c4)c3)c(-c3ccccc3F)c2C1` showed an IC50 [1] of 328 nM.

Compound `CN1Cc2nn(Cc3cccc(-c4ccc(F)cc4)c3)c(-c3ccccc3F)c2C1` has an IC50 [1] of 340 nM.

`CC(C)Oc1ccc(-c2c3c(nn2Cc2cccc(O)c2)CN(C)C3)cc1` showed an IC50 [1] of over 10000 nM.

In the case of `Cc1ccccc1-c1c2c(nn1Cc1cccc(O)c1)CN(C)C2`, the IC50 [1] is reported as 97.5 nM.

Work on `CN1Cc2nn(Cc3cccc(-c4cccc(N(C)C)c4)c3)c(-c3ccccc3F)c2C1` yielded an IC50 [1] of 313 nM.

For `CN1Cc2nn(Cc3cccc(N4CCOCC4)c3)c(-c3ccccc3F)c2C1`, the IC50 [1] was 410 nM.

Work on `CN1Cc2nn(Cc3ccccc3)c(-c3ccccc3F)c2C1` yielded an IC50 [1] of 861 nM.

Work on `CN1Cc2nn(Cc3ccoc3)c(-c3ccccc3F)c2C1` yielded an IC50 [1] of 3200 nM.

Work on `CN1Cc2c(-c3ccccc3F)nn(S(=O)(=O)c3ccccc3)c2C1` yielded an IC50 [1] of over 10000 nM.

`CN1Cc2nn(Cc3cccc(-c4cccc(C(F)(F)F)c4)c3)c(-c3ccccc3F)c2C1` showed an IC50 [1] of 440 nM.

Compound `CN1Cc2nn(Cc3cccc(-c4ccccc4F)c3)c(-c3ccccc3F)c2C1` has an IC50 [1] of 376 nM.

Compound `COC(=O)c1ccccc1-c1c2c(nn1Cc1cccc(O)c1)CN(C)C2` has an IC50 [1] of over 10000 nM.

For `CN1Cc2nn(Cc3ccccc3F)c(-c3ccccc3F)c2C1`, the IC50 [1] was 814 nM.

Work on `CN1Cc2cc(S(=O)(=O)c3ccccc3)n(-c3ccccc3F)c2C1` yielded an IC50 [1] of 2110 nM.

With `CN1Cc2nn(Cc3cc4ccccc4o3)c(-c3ccccc3F)c2C1` the IC50 [1] was 4300 nM.

`CN1Cc2nn(Cc3cccc(F)c3)c(-c3ccccc3F)c2C1` gave an IC50 [1] of 342 nM.

`CN1Cc2nn(Cc3cccc(O)c3)c(-c3cccc(Cl)c3)c2C1` gave an IC50 [1] of 6350 nM.

Work on `CN1Cc2nn(Cc3cccnc3)c(-c3ccccc3F)c2C1` yielded an IC50 [1] of 674 nM.

`CN1Cc2nn(Cc3ccsc3)c(-c3ccccc3F)c2C1` showed an IC50 [1] of 2160 nM.

Compound `CN1Cc2nn(S(=O)(=O)c3cccnc3)c(-c3ccccc3F)c2C1` has an IC50 [1] of 1100 nM.

Work on `CN1Cc2nn(Cc3cccc(-c4cccc(S(C)(=O)=O)c4)c3)c(-c3ccccc3F)c2C1` yielded an IC50 [1] of 129 nM.

In the case of `CN1Cc2nn(Cc3cccc(O)c3)c(-c3ccc(O)cc3)c2C1`, the IC50 [1] is reported as 3580 nM.

Work on `CN1Cc2nn(Cc3cccc(O)c3)c(-c3ccccc3F)c2C1` yielded an inhibition in vivo at 1 mg/kg [2] of 35.6% and an IC50 [1] of 77.3 nM.

`CN1Cc2nn(Cc3cccc(O)c3)c(-c3ccccc3Cl)c2C1` gave an IC50 [1] of 104 nM.

With `CN1Cc2nn(Cc3cccc(OCC(N)=O)c3)c(-c3ccccc3F)c2C1` the IC50 [1] was 747 nM.

In the case of `CN1Cc2nn(S(=O)(=O)c3ccccc3)c(-c3ccccc3F)c2C1`, the IC50 [1] is reported as 1030 nM.

Work on `CN1Cc2nn(Cc3cccc(OCCC(N)=O)c3)c(-c3ccccc3F)c2C1` yielded an IC50 [1] of 389 nM.

Work on `CN1Cc2nn(Cc3ccc(F)cc3)c(-c3ccccc3F)c2C1` yielded an IC50 [1] of 585 nM.

With `CN1Cc2nn(Cc3cccc(N)c3)c(-c3ccccc3F)c2C1` the IC50 [1] was 894 nM.

Compound `CN1Cc2nn(Cc3cccc(-c4cccc(C(N)=O)c4)c3)c(-c3ccccc3F)c2C1` has a bioavailability [3] of 16.4%, an AUC(0-inf) [4] of 341 ng·h/mL and an inhibition in vivo at 1 mg/kg [2] of 86.8%. The AUC(0-inf) [5] was 520 ng·h/mL, the Cmax [6] was 150 ng/mL and the half-life [7] was 29.4 min. The IC50 [1] was 60.5 nM and the half-life [8] was 48 min.

`CN1Cc2nn(Cc3cccc(O)c3)c(-c3cccc(O)c3)c2C1` showed an IC50 [1] of 1240 nM.

In the case of `CN1Cc2nn(Cc3cccc(O)c3)c(-c3ccccc3CO)c2C1`, the IC50 [1] is reported as over 10000 nM.

`CN1Cc2nn(Cc3cccc(O)c3)c(-c3cccnc3)c2C1` gave an IC50 [1] of 4170 nM.

`CN1Cc2nn(Cc3cccc(O)c3)c(-c3cccnc3F)c2C1` gave an IC50 [1] of 488 nM.

`CN1Cc2nn(Cc3cccc(O)c3)c(-c3ccccc3)c2C1` gave an IC50 [1] of 1850 nM.

`COc1cccc(Cn2nc3c(c2-c2ccccc2F)CN(C)C3)c1` showed an IC50 [1] of 290 nM.

For `Cc1ccc(-c2c3c(nn2Cc2cccc(O)c2)CN(C)C3)c(F)c1`, the IC50 [1] was 416 nM.

`CNCc1cc(-c2ccccc2F)n(S(=O)(=O)c2cccnc2)c1` [VONOPRAZAN] gave a bioavailability [9] of 10%, an inhibition in vivo at 1 mg/kg [2] of 91% and a half-life [10] of 78 min. For the same compound, the AUC(0-inf) [11] was 99 ng·h/mL, the Cmax [12] was 17 ng/mL and the AUC(0-inf) [13] was 27 ng·h/mL. The IC50 [1] was 49.1 nM and the half-life [14] was 72 min.
